Assay results from patent publication US6436344B1, “Method of inactivating pathogens” (American National Red Cross, priority 1999, dated 2002).
Values joined by “and” are separate entries in the source; they are usually repeats but may differ in a detail not shown here. Identical values can stand only once. Like-named read-outs stand apart in the source and are kept apart here.

Legend:
[1] = target: T1, human coagulation Factor VIII (Homo sapiens, UniProt P00451); assay: Preservation of Factor VIII clotting activity, one-stage APTT (Example 5); assay type: biochemical; conditions: for FVIII u/mL after 37° C. incubation, 3 hours: 3 hours at 37° C.
T1 construct: The CFVIII product tested was ‘Antihemophilic Factor, Human, Method M, Solvent and Detergent Treated’ (American Red Cross); tissue American Red Cross; host or cells: human plasma (own knowledge: Method M is a plasma-derived, monoclonal-antibody-purified concentrate)

[2] = target: T2, human coagulation Factor IX (Homo sapiens, UniProt P00740); assay: Preservation of Factor IX clotting activity, one-stage APTT (Example 7); assay type: biochemical; conditions: 0.01 M calcium chloride, pH 6.2
T2 construct: highly-purified human coagulation Factor IX, a labile plasma clotting factor; from tissue

pseudorabies virus (PRV) = assay type: cell-based; conditions: for Pseudorabies Virus Av. rate / Pseudorabies Virus Reduction Factor: pH 5.5, 4 hours at 37° C.
porcine parvovirus (PPV) [3] = assay: Inactivation of PPV by CAA in the presence of Factor VIII (Example 6); assay type: cell-based
Experimental: (§1) Viral assays were performed by the TCID50 method as described by Miekka et al, HEMOPHILIA 4, 401-408 (1998). Target porcine kidney cells, PK-13 (ATCC CRC-6490), were seeded into 96-well microtiter plates and grown to 50-70% confluence. Five-fold serial dilutions (200 μL) of samples were prepared in cell culture medium and added to four wells each. Plates were incubated for 7 days at 37° C. in humidified 5% carbon dioxide. Cell layers were analyzed for cytopathic effect, and log10 viral titers were calculated by the method of Kärber, ARCH. Exp. PATHOL. PHARMAKOL., 162, 480-483 (1931). The average PPV reduction rate (log10/hour) was computed by regression analysis of the viral titers at each of the time points tested. Viral titers that had decreased to the assay limit were excluded from this calculation.
A stock solution of 100 mM CAA in water was neutralized to pH 7.0 and was added to CFVIII to give final CAA concentrations of 3 mM and 6 mM and final CFVIII concentration of 100 clotting units/mL. All samples were buffered at pH 5.5 with 0.02 M sodium acetate. PPV was spiked into the samples at 1:40 ratio. The samples were incubated for 4 hours at 37° C. The positive hold controls were acetate buffer or Factor VIII, spiked with PPV and incubated 4 hours at 37° C. Viral assays and cell culture techniques were performed as described in EXAMPLE 3. Viral reduction factors were calculated as the difference between the log10 titers of the non-incubated and 4-hour incubated samples.

porcine parvovirus (PPV) [4] = assay: Porcine parvovirus inactivation by CAA, TCID50 titration on PK-13 cells (Example 3); assay type: cell-based, PPV strain NADL-2
Experimental: An aqueous solution of chloroacetaldehyde (Aldrich Chemical, Milwaukee, Wis., Product 31,727-6, Lot KS02106MR, 50% in water) was diluted to the desired mM concentrations (0.5, 1, 2 and 5 mM) in 0.05 M sodium acetate buffer, pH 5.5. The 2 mM and 5 mM CAA samples were also prepared in 2.5% IgG solution, buffered at pH 5.5 with sodium acetate. Positive hold controls contained 0.05 M sodium acetate buffer, pH 5.5, or acetate-buffered 2.5% IgG without CAA. Positive controls and test samples were spiked 1:40 with porcine parvovirus (ATCC VR-742, PPV strain NADL-2). Aliquots were removed for immediate viral assay and the remaining samples were incubated at 37° C. for 4, 7 and 22.5 hours and then assayed to determine viral titers.
as §1

[5] = Relative amount of IAA and its hydrated form in water by NMR (Example 1C); assay type: physicochemical; conditions: water solution, NMR estimate, 40° C.
Experimental: One-dimensional ^1H-NMR spectra were recorded on a Bruker DRX 500 spectrometer at 40° C. The signal for TSP was used as internal reference (δH=0.0 ppm). A sample was prepared by adding 50 μl of the solution purified by reverse phase chromatography (RPC) to 650 μl D2O and subsequently transferring the diluted sample to a 5 mm NMR tube. For the quantitative measurement, a solution of Sodium Trimethyl Silyl Propionic acid (TSP, 0.991 mg/ml) was prepared; and 10 μl of that solution was added to the sample. By comparing the integral of the methyl groups in TSP with the integral of the CH2-group in hydrated IAA, an estimate of the IAA concentration in the sample could be made. Iodoacetaldehyde is in equilibrium with its hydrated form in a water solution. An estimate based on NMR is that the hydrated form accounts for approximately 90% of the sample, and the aldehyde form approximately 10%. This equilibrium should be taken into account when calculating concentration of IAA in aqueous media.

[6] = Effect of pH 12, heat and thiosulfate on iodoacetaldehyde, GC-MS and NMR (Example 8); assay type: physicochemical
porcine parvovirus (PPV) [7] = assay: Porcine parvovirus inactivation by IAA, TCID50 titration on PK 15 cells (Example 2); assay type: cell-based, strain PPV 893/76; conditions: for PPV Reduction Factor: 4 hours
Experimental: RPC-purified IAA was diluted to the desired μM concentrations in water or in 5% IgG solution (>98% pure, KABI, Stockholm, Sweden), and the pH was adjusted to 5.00 with 0.4 M sodium phosphate. […] The samples were then gel filtered through sterile PD 10 columns containing Sephadex G-25 (Amersham Pharmacia Biotech Uppsala, Sweden) equilibrated with 25 ml of cell culture medium. A sample (2 ml) was layered onto the column and the fall-through was discarded. Then 3.2 ml cell culture medium (3.2 ml) was added to the column and the first 0.5 mL of eluate was discarded. The remaining eluate was collected for viral assay. The resulting diluting factor was 1.48. Materials for viral assays were as follows. […] The cell supernatant was clarified by low speed centrifugation and filtered through 0.45 μm and 0.2 μm filters before storing at -70° C. in aliquots. The target cells for titration of PPV were porcine kidney cell line PK 15 (ATCC CCL-33). The cells were cultivated according to conventional cell culture procedures in EMEM with non-essential amino acids (SVA, Uppsala, Sweden), supplemented with 120 μg/ml of penicillin G, 100 μg/ml of streptomycin sulfate and 5% fetal calf serum. Cells were seeded in 96 well microtiter plates (Nunc). Viral assays were performed by a TCID50 method. The original virus stock (positive control sample) and the test samples were serially diluted ten-fold in cell culture medium shortly after sampling. Aliquots (50 μl) of each dilution were added to eight wells of the 96-well microtiter plates. […] After incubation for 7 days at 37° C. in a humidified atmosphere of 5% CO2, the cells were rinsed in physiological saline and fixed in 80% acetone for 30 minutes at -20° C., after which the fixation fluid was removed and the plates were dried at 37° C. Virus infected cells were visualized by an immunoperoxidase method (Jensen […]. 22 (1981) 85-98; […]., RECENT ADVANCES IN VIRUS DIAGNOSTICS, McNutly and […]. (1984) 37-46; Saunders G. C., Am. J. VET. RES. 38 (1977) 21-25). […] The cells were then washed twice for five minutes with wash fluid and once with physiological saline. Peroxidase-conjugated rabbit anti-mouse IgG P 2060 (Dakopatts, Denmark) was added to the cells. […] Wells with viral foci were counted using an inverted microscope and the tissue culture infectious dose giving a 50% end point (TCID50) was calculated for each sample. […] 10^R=(V'×10^a')/(V''×10^a'')

[8] = target: T2, human coagulation Factor IX; conditions: treatment with molecular iodine; cited from earlier work
[9] = 5 mM CAA, incubation for 4 hours
[10] = CAA 3 mM, Factor VIII (AHF-M) 100 clotting units/mL, pH 5.5, 4 hours at 37° C.
[11] = CAA 3 mM, buffer pH 5.5, 4 hours at 37° C.
[12] = CAA 6 mM, Factor VIII (AHF-M) 100 clotting units/mL, pH 5.5, 4 hours at 37° C.
[13] = CAA 6 mM, buffer pH 5.5, 4 hours at 37° C.
[14] = CAA 3 and 6 mM, with and without Factor VIII, 4 hours

T1 sequence (P00451 20-1667 limits assumed): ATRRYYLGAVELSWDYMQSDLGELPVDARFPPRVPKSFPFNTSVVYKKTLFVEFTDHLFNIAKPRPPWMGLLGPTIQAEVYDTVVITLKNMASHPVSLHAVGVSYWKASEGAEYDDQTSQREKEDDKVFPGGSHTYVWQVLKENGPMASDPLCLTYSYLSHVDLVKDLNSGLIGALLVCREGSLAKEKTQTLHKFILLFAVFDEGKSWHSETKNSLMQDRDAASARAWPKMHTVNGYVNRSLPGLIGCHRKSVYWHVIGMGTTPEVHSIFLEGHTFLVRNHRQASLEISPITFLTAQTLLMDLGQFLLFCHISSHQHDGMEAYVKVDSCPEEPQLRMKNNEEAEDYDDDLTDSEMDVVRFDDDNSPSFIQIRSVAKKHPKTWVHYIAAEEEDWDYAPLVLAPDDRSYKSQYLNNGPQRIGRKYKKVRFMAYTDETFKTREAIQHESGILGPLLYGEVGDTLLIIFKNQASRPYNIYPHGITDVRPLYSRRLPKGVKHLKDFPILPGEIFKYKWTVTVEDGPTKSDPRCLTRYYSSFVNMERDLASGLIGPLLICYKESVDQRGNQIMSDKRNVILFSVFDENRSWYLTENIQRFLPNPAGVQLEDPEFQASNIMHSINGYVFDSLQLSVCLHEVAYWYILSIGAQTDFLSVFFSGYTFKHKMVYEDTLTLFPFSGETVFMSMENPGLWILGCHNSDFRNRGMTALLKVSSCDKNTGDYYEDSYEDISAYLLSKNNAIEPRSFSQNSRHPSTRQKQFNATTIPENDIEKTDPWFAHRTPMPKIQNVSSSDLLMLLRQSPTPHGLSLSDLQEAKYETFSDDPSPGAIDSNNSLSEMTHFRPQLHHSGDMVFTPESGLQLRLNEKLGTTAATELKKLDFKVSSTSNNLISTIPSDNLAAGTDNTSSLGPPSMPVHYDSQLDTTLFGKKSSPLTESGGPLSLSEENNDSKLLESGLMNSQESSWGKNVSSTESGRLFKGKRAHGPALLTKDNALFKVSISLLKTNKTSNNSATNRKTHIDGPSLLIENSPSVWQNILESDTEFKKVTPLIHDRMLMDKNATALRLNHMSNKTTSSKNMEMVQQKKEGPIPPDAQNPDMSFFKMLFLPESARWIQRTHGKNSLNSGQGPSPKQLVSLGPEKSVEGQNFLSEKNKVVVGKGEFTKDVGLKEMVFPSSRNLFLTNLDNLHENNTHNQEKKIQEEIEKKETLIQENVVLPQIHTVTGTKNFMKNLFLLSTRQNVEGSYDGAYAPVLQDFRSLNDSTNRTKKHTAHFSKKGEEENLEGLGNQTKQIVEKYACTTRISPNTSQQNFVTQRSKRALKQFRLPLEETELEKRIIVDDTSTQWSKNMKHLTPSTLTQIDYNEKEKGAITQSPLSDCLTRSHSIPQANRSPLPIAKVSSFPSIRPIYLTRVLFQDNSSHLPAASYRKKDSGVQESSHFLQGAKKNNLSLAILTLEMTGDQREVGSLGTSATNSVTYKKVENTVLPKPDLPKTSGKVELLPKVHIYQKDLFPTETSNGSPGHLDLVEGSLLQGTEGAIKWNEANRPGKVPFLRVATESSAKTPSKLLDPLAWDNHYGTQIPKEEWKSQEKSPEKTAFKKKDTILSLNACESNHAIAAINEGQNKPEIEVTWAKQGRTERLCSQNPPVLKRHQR
T1 sequence (P00451 1668-2351 limits assumed): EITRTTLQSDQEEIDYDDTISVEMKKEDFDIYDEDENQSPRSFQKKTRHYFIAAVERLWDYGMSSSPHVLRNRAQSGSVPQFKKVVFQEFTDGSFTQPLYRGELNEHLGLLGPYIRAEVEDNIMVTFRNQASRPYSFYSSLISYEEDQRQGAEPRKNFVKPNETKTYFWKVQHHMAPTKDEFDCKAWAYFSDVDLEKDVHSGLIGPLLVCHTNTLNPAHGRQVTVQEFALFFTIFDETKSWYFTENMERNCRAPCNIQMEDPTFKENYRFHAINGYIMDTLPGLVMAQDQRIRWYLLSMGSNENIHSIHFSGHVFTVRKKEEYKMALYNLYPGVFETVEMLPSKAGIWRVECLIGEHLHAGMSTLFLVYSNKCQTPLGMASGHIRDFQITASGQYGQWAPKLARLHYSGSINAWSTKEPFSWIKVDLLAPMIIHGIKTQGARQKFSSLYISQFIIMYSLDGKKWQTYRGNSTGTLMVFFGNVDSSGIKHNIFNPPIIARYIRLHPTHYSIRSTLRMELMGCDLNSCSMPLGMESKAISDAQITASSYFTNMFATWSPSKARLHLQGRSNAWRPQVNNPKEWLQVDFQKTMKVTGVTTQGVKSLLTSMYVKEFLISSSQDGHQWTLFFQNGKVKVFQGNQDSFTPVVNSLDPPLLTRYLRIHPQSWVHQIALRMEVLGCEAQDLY
T2 sequence (P00740 47-461): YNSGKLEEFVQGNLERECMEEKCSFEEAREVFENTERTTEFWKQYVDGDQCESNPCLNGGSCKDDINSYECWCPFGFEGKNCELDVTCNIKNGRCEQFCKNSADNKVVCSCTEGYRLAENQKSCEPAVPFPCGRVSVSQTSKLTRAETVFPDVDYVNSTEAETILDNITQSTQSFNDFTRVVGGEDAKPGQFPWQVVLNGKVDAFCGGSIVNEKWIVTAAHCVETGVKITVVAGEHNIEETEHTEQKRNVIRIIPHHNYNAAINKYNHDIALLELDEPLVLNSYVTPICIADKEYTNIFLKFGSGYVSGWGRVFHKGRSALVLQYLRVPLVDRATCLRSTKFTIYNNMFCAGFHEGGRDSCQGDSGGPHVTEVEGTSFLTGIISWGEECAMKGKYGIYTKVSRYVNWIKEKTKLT

O=CCCl [CAA, Chloroacetaldehyde]
FVIII u/mL after 37° C. incubation, 0 hour ([1]; CAA 4.2 mM): 121 u/mL and 95 u/mL
FVIII u/mL after 37° C. incubation, 0 hour ([1]; CAA 8.5 mM): 88 u/mL and 109 u/mL
FVIII u/mL after 37° C. incubation, 3 hours ([1]; CAA 8.5 mM): 105 u/mL and 117 u/mL
FVIII u/mL after 37° C. incubation, 0 hour ([1]; CAA 12.7 mM): 89 u/mL and 106 u/mL
FVIII u/mL after 37° C. incubation, 3 hours ([1]; CAA 12.7 mM): 91 u/mL and 108 u/mL
% of initial clotting activity remaining after 37° C. incubation ([2]; CFIX-M + 1 mM CAA, 0 hour): 95.2%
% of initial clotting activity remaining after 37° C. incubation ([2]; CFIX-M + 1 mM CAA, 4 hour): 93.9%
% of initial clotting activity remaining after 37° C. incubation ([2]; CFIX-M + 1 mM CAA, 20 hour): 100.3%
% of initial clotting activity remaining after 37° C. incubation ([2]; CFIX-M + 5 mM CAA, 0 hour): 97.7%
% of initial clotting activity remaining after 37° C. incubation ([2]; CFIX-M + 5 mM CAA, 4 hour): 100.6%
% of initial clotting activity remaining after 37° C. incubation ([2]; CFIX-M + 5 mM CAA, 20 hour): 89.1%
Pseudorabies Virus Av. rate (pseudorabies virus (PRV); 2 mM): 0.66 log10/hour
Pseudorabies Virus Reduction Factor (pseudorabies virus (PRV); 2 mM): 2.10 log10/4 hours
pseudorabies virus inactivated (pseudorabies virus (PRV); [9]): ≥ 3.2 log10
Pseudorabies Virus Av. rate (pseudorabies virus (PRV); 5 mM): ≧0.79 log10/hour
Pseudorabies Virus Reduction Factor (pseudorabies virus (PRV); 5 mM): ≧3.15 log10/4 hours
PPV Average rate (porcine parvovirus (PPV) [3]; [10]): ≧0.61 Log10/hour
PPV Reduction Factor (porcine parvovirus (PPV) [3]; [10]): ≧2.44 Log10/4 hours
PPV Average rate (porcine parvovirus (PPV) [3]; [11]): ≧0.57 Log10/hour
PPV Reduction Factor (porcine parvovirus (PPV) [3]; [11]): ≧2.27 Log10/4 hours
PPV Average rate (porcine parvovirus (PPV) [3]; [12]): ≧0.52 Log10/hour
PPV Reduction Factor (porcine parvovirus (PPV) [3]; [12]): ≧2.09 Log10/4 hours
PPV Average rate (porcine parvovirus (PPV) [3]; [13]): ≧0.43 Log10/hour
PPV Reduction Factor (porcine parvovirus (PPV) [3]; [13]): ≧1.75 Log10/4 hours
PPV reduction factors (limited by assay sensitivity) (porcine parvovirus (PPV) [3]; [14]): ≥ 2 log10/4 hours
PPV reduction rate (limited by assay sensitivity) (porcine parvovirus (PPV) [3]; [14]): ≥ 0.5 log10/hour
PPV inactivation rate (porcine parvovirus (PPV) [4]; 2 mM CAA): ~0.6 log10/hour
porcine parvovirus inactivated (porcine parvovirus (PPV) [4]; [9]): 3.2 -4 log10
porcine parvovirus inactivated (porcine parvovirus (PPV) [4]; 4-hour treatment with 5 mM CAA): ≥ 3.6 logs
Average PPV Reduction (porcine parvovirus (PPV) [4]; CAA 0.5 mM (total), buffer, pH 5.40, 37° C.): 0.16 Log10/hour
Average PPV Reduction (porcine parvovirus (PPV) [4]; CAA 1 mM (total), buffer, pH 5.40, 37° C.): 0.26 Log10/hour
Average PPV Reduction (porcine parvovirus (PPV) [4]; CAA 2 mM (total), 2.5% IgG, pH 5.36, 37° C.): 0.61 Log10/hour
Average PPV Reduction (porcine parvovirus (PPV) [4]; CAA 2 mM (total), buffer, pH 5.50, 37° C.): 0.48 Log10/hour
Average PPV Reduction (porcine parvovirus (PPV) [4]; CAA 5 mM (total), 2.5% IgG, pH 5.50, 37° C.): ≧0.79 Log10/hour
concentration effective at inactivating pathogens (as low as) (porcine parvovirus (PPV) [4]; aqueous solutions of chloroacetaldehyde): about 1.0 mM

O=CCI [IAA, Iodoacetaldehyde]
aldehyde form, share of the sample [5]: approximately 10%
hydrated form, share of the sample [5]: approximately 90%
Effect on Iodoacetaldehyde, Change ([6]; 80° C. (20 hours)): Degraded
Effect on Iodoacetaldehyde, Change ([6]; Sodium thiosulfate, 2-20 mM): Degraded
Effect on Iodoacetaldehyde, Change ([6]; pH 12 (0.5 hour)): Degraded
potency relative to CAA (PPV inactivation) (porcine parvovirus (PPV) [7]; 180 μM IAA v. 2 mM CAA at the same rate): over 10 times
PPV Reduction Factor (porcine parvovirus (PPV) [7]; IAA 36 μM (hydrated form), 5% IgG, pH 4.64, 37° C.): ≦0.7 Log10/4 hours
PPV Reduction Factor (porcine parvovirus (PPV) [7]; IAA 36 μM (hydrated form), buffer, pH 4.96, 37° C.): 0.8 Log10/4 hours
PPV Reduction Factor (porcine parvovirus (PPV) [7]; IAA 45 μM (hydrated form), 5% IgG, pH 4.64, 37° C.): 0.9 Log10/4 hours
PPV Reduction Factor (porcine parvovirus (PPV) [7]; IAA 45 μM (hydrated form), buffer, pH 4.96, 37° C.): 1.1 Log10/4 hours
PPV Reduction Factor (porcine parvovirus (PPV) [7]; IAA 60 μM (hydrated form), 5% IgG, pH 4.64, 37° C.): 1.2 Log10/4 hours
PPV Reduction Factor (porcine parvovirus (PPV) [7]; IAA 60 μM (hydrated form), buffer, pH 4.96, 37° C.): 1.1 Log10/4 hours
PPV Reduction Factor (porcine parvovirus (PPV) [7]; IAA 90 μM (hydrated form), 5% IgG, pH 4.62, 37° C.): 1.4 Log10/4 hours
PPV Reduction Factor (porcine parvovirus (PPV) [7]; IAA 90 μM (hydrated form), buffer, pH 4.95, 37° C.): 1.7 Log10/4 hours
PPV inactivation rate (porcine parvovirus (PPV) [7]; IAA 180 μM): ~0.6 log10/hour
PPV Reduction Factor (porcine parvovirus (PPV) [7]; IAA 180 μM (hydrated form), 5% IgG, pH 4.61, 37° C.): 2.5 Log10/4 hours
PPV Reduction Factor (porcine parvovirus (PPV) [7]; IAA 180 μM (hydrated form), buffer, pH 4.93, 37° C.): 2.7 Log10/4 hours
PPV Reduction Factor (porcine parvovirus (PPV) [7]; IAA 600 μM (hydrated form), 5% IgG, pH 4.56, 37° C.): ≧4.7 Log10/4 hours
PPV Reduction Factor (porcine parvovirus (PPV) [7]; IAA 600 μM (hydrated form), buffer, pH 4.84, 37° C.): ≧4.7 Log10/4 hours
concentration effective at inactivating pathogens, e.g., porcine parvovirus (as low as) (porcine parvovirus (PPV) [7]; IAA hydrate): 50 µM

II [molecular iodine]
effect on Factor IX [8]: completely inactivate
